Test results: patent US12083105B2, “Compositions and methods for treating adult-onset neuronal ceroid lipofuscinosis (Kufs disease)” (CORNELL UNIVERSITY, priority 2020, dated 2024)

Tests used:
Assay type in all cases: cell-based, human
[1] = system: Fe—S clusters bound to immunoprecipitated CSPα; assay: UV-Vis absorbance spectra of CSPα immunoprecipitated from ANCL patient fibroblasts; settings: 200 μM, 72 h, compared to control (0.1% DMSO), FIG. 7A
Protocol: (§1) ANCL patient-derived fibroblasts were treated with 200 μM of L1 or Dfx, or vehicle (0.1% DMSO=Control) for 72 h, before measuring the UV-Vis absorbance spectra of immunoprecipitated CSPα eluted by trypsinization (solid lines). Spectra were re-read after 10 min of 0.1 N HCl treatment (dashed lines). The experiments shown in FIGS. 7B-7I, were conducted using ANCL fibroblasts converted to iNs using BAM+ND1 technique. […] Quantitative immunoblotting was used to measure levels of oligomerized and fully palmitoylated CSPα as well as total SNAP-25. Oligo=oligomers; Palm=palmitoylated. […] The interaction of CSPα with SNAP-25 in ANCL iNs was measured by immunoprecipitating SNAP-25 followed by quantitative immunoblotting of co-immunoprecipitated CSPα (normalized to SNAP-25 IP). Note that mainly CSPα monomers and not oligomers were detected bound to SNAP-25. Control=control sham IP without IgG. […] Turnover of SNAP-25 was determined by cycloheximide chase, while maintaining the iron-chelators or vehicle in the medium. […] In the experiments shown in FIGS. 7E-7G, ANCL iNs treated with L1, Dfx, or vehicle for 56 d and analyzed. […] The levels of lipofuscin were determined by ELISA. In the experiments shown in FIGS. 7H-7I 56 day old untreated ANCL iNs were treated with L1, Dfx, or vehicle, and analyzed. […]

ANCL iNs = assay: Lipofuscin autofluorescence in ANCL iNs; settings: ANCL iNs treated for 56 d from iN conversion (prevention); compared to control; FIG. 7E
Protocol: as §1, with “SNAP-25.” for “SNAP-25. Control=control sham IP without IgG.”
(§2) Effect of iron chelators on the accumulation of lipofuscin was monitored by ELISA for lipofuscin or based on lipofuscin autofluorescence. […]

ATP5G = ATP5G accumulation in ANCL iNs (quantitative immunoblotting); settings: for accumulation of ATP5G: ANCL iNs treated for 56 d (prevention), FIG. 7F; for ATP5G levels: added to ANCL iNs after 56 days of lipofuscin accumulation, followed 3 weeks (treatment), compared to control, FIG. 7H
Protocol: ANCL patient-derived fibroblasts were treated with 200 μM of L1 or Dfx, or vehicle (0.1% DMSO=Control) for 72 h, before measuring the UV-Vis absorbance spectra of immunoprecipitated CSPα eluted by trypsinization (solid lines). Spectra were re-read after 10 min of 0.1 N HCl treatment (dashed lines). The experiments shown in FIGS. 7B-7I, were conducted using ANCL fibroblasts converted to iNs using BAM+ND1 technique. […] Quantitative immunoblotting was used to measure levels of oligomerized and fully palmitoylated CSPα as well as total SNAP-25. Oligo=oligomers; Palm=palmitoylated. […] The interaction of CSPα with SNAP-25 in ANCL iNs was measured by immunoprecipitating SNAP-25 followed by quantitative immunoblotting of co-immunoprecipitated CSPα (normalized to SNAP-25 IP). Note that mainly CSPα monomers and not oligomers were detected bound to SNAP-25. Control=control sham IP without IgG. […] Turnover of SNAP-25 was determined by cycloheximide chase, while maintaining the iron-chelators or vehicle in the medium. […] In the experiments shown in FIGS. 7E-7G, ANCL iNs treated with L1, Dfx, or vehicle for 56 d and analyzed. […] The levels of lipofuscin were determined by ELISA. In the experiments shown in FIGS. 7H-7I 56 day old untreated ANCL iNs were treated with L1, Dfx, or vehicle, and analyzed. […] Data are from FIG. 7A representative of n=4, FIG. 7B n=4, FIG. 7C n=4, FIG. 7D n=7, FIG. 7F n=4, FIG. 7G n=4, FIG. 7H n=6, FIG. 7I n=3. In FIGS. 7B-7C and FIGS. 7F-7G *P<0.05; **P<0.01; ****P<0.0001 by two-tailed Student's t-test. #P<0.05 by Mann-Whitney-Wilcoxon U test. In FIG. 7D-7C and FIGS. 7H-7I **P<0.01; ***P<0.001; ****P<0.0001 by two-way ANOVA; ##P<0.01; ###P<0.001; ####P<0.0001 by Tukey's multiple comparisons test.
For SDS-PAGE, 10-15% Laemmli gels (10.3% T and 3.3% C) were used to separate proteins on Bio-Rad apparati. Proteins were transferred onto nitrocellulose (pore-size=[…]; GE Healthcare) and blocked with 5% w/v fat-free dry milk in tris buffered saline, pH 7.5 supplemented with 0.1% Tween 20 (TBS-T). Immunoblotting was performed by incubating the blocked membranes with primary antibodies in blocking buffer for 8-16 hours. Following 5 washes with TBS-Tween 20 (0.1%). Blots were incubated with secondary antibodies (goat anti-rabbit conjugated to IRDye […] or 800CW; LI-COR) at 1/5000 in blocking buffer for 1-3 hours. Immunoblots were washed 5× with TBS-T and dried, then scanned on Odyssey CLx (LI-COR) and quantified using Image-Studio software (LI-COR).
For ATPSG immunoblots, following the transfer, nitrocellulose membranes were dried and fixed for 15 min at room temperature in 0.2% glutaraldehyde in PBS. […]
as §2

| Compound | UV-Vis signature of Fe—S clusters bound to immunoprecipitated CSPα [1] | lipofuscin autofluorescence (ANCL iNs) | accumulation of ATP5G (ATP5G) | ATP5G levels (ATP5G) |
| --- | --- | --- | --- | --- |
| CC(=O)N(O)CCCCCNC(=O)CCC(=O)N(O)CCCCCNC(=O)CCC(=O)N(O)CCCCCN [Dfx, N′-[5-(Acetyl-hydroxy-amino)pentyl]-N-[5-[3-(5-aminopentyl-hydroxy-carbamoyl)propanoylamino]pentyl]-N-hydroxy-butane diamide] | reduced | reduced | trend toward reduced accumulation | diminished down to similar levels as observed in the prevention experiments |
| Cc1c(O)c(=O)ccn1C [L1, 3-hydroxy-1,2-dimethyl-4(1H)-pyridone] | reduced | reduced | trend toward reduced accumulation | diminished down to similar levels as observed in the prevention experiments |
